# Data as given in patent US8846912B2, “Tartrate salts of quinazoline based EGFR inhibitors containing a zinc binding moiety” (Curis, Inc., priority 2007, dated 2014).
# Molecular target: HDAC
# Assay: HDAC fluorimetric enzyme assay (HeLa nuclear extract)
# Assay type: biochemical
# Method: HDAC inhibitors were screened using an HDAC fluorimetric assay kit (AK-500, Biomol, Plymouth Meeting, Pa.).
# Each assay was setup as follows: Defrosted all kit components and kept on ice until use. […] Prepared dilutions of Trichostatin A (TSA, positive control) and tested compounds in assay buffer (5× of final concentration). Diluted Fluor de Lys™ Substrate in assay buffer to 100 uM (50 fold=2× final). Diluted Fluor de Lys™ developer concentrate 20-fold (e.g. 50 μl plus 950 μl Assay Buffer) in cold assay buffer. Second, diluted the 0.2 mM Trichostatin A 100-fold in the 1× Developer (e.g. 10 μl in 1 ml; final Trichostatin A concentration in the 1× Developer=2 μM; final concentration after addition to HDAC/Substrate reaction=1 μM). Added Assay buffer, diluted trichostatin A or test inhibitor to appropriate wells of the microtiter plate. Added diluted HeLa extract or other HDAC sample to all wells except for negative controls.
row,IC50 [nM],Compound
1,< 100,"C#Cc1cccc(Nc2ncnc3cc(OC)c(NC(=O)CCCCCCC(=O)NO)cc23)c1 [Compound 44, N^1-(4-(3-ethynylphenylamino)-7-methoxyquinazolin-6-yl)-N^8-hydroxyoctanediamide]"
2,> 10000,"O=C(COc1ccc2ncnc(Nc3ccc(F)c(Cl)c3)c2c1)NO [Compound 13, 2-(4-(3-Chloro-4-fluorophenylamino)quinazolin-6-yloxy)-N-hydroxyacetamide]"
3,< 100,C#Cc1cccc(CNc2ncnc3cc(OC)c(OCCCCCCC(=O)NO)cc23)c1 [Compound 90]
4,100 to 1000,COc1cc2ncnc(Nc3ccc(F)c(Cl)c3)c2cc1OCCCCC(=O)NO [Compound 4]
5,< 100,"C#Cc1cccc(Nc2ncnc3ccc(OCCCCCC(=O)NO)cc23)c1 [Compound 23, 6-(4-(3-ethynylphenylamino)quinazolin-6-yloxy)-N-hydroxyhexanamide]"
6,< 100,"COc1ccc([C@@H](C)Nc2ncnc3cc(OC)c(OCCCCCCC(=O)NO)cc23)cc1 [Compound 83, (R)—N-Hydroxy-7-(7-methoxy-4-(1-(4-methoxyphenyl)ethylamino)-quinazolin-6-yloxy)-heptanamide]"
7,100 to 1000,"O=C(CCCCOc1ccc2ncnc(Nc3ccc(F)c(Cl)c3)c2c1)NO [Compound 16, 5-(4-(3-chloro-4-fluorophenylamino)quinazolin-6-yloxy)-N-hydroxypentanamide]"
8,< 100,"O=C(CCCOc1ccc2ncnc(Nc3ccc(F)c(Cl)c3)c2c1)NO [Compound 15, 4-(4-(3-chloro-4-fluorophenylamino)quinazolin-6-yloxy)-N-Hydroxybutanamide]"
9,100 to 1000,"COc1cc2ncnc(N[C@H](C)c3ccc(Cl)cc3)c2cc1OCCCCCCC(=O)NO [Compound 82, (R)-7-(4-(1-(4-Chlorophenyl)ethylamino)-7-methoxyquinazolin-6-yloxy)-N-hydroxyheptanamide]"
10,< 100,"O=C(CCCCCCOc1ccc2ncnc(Nc3ccc(F)c(Cl)c3)c2c1)NO [Compound 18, 7-(4-(3-chloro-4-fluorophenylamino)quinazolin-6-yloxy)-N-hydroxyheptanamide]"
11,< 100,"COc1cc2ncnc(Nc3ccc(F)c(Cl)c3)c2cc1NC(=O)CCCCCCC(=O)NO [Compound 40, N^1-(4-(3-chloro-4-fluorophenylamino)-7-methoxyquinazolin-6-yl)-N^8-hydroxyoctanediamide]"
12,> 10000,Nc1cc(Br)ccc1NC(=O)COc1ccc2ncnc(Nc3ccc(F)c(Cl)c3)c2c1 [Compound 45]
13,< 100,"COc1cc2ncnc(N[C@H](C)c3ccccc3)c2cc1OCCCCCCC(=O)NO [Compound 79, (R)—N-hydroxy-7-(7-methoxy-4-(1-phenylethylamino)quinazolin-6-yloxy)heptanamide]"
14,< 100,"C#Cc1cccc(Nc2ncnc3ccc(OCCCCCCC(=O)NO)cc23)c1 [Compound 24, 7-(4-(3-ethynylphenylamino)quinazolin-6-yloxy)-N-hydroxyheptanamide]"
15,100 to 1000,C[C@@H](Nc1ncnc2ccc(OCCCCCC(=O)NO)cc12)c1ccccc1 [Compound 50]
16,> 10000,"COc1cc2ncnc(Nc3ccc(F)c(Cl)c3)c2cc1OCCCC(=O)NO [Compound 3, 4-(4-(3-Chloro-4-fluorophenylamino)-7-methoxyquinazolin-6-yloxy)-N-hydroxybutanamide]"
17,< 100,"COc1cc2ncnc(NCc3ccc(F)c(F)c3)c2cc1OCCCCCCC(=O)NO [Compound 87, 7-(4-(3,4-difluorobenzylamino)-7-methoxyquinazolin-6-yloxy)-N-hydroxyheptanamide]"
18,100 to 1000,"COc1cc2ncnc(Nc3ccc(F)c(Cl)c3)c2cc1OCCOc1ccc(/C=C/C(=O)NO)cc1 [Compound 66, (E)-3-(4-(2-(4-(3-chloro-4-fluorophenylamino)-7-methoxyquinazolin-6-yloxy)ethoxy)phenyl)-N-hydroxyacrylamide]"
19,< 100,"COc1cc2ncnc(N[C@@H](C)c3ccccc3)c2cc1OCCCCCCC(=O)NO [Compound 80, (S)—N-hydroxy-7-(7-methoxy-4-(1-phenylethylamino)quinazolin-6-yloxy) heptanamide]"
20,< 100,"COc1cc2ncnc(NCc3ccc(F)cc3)c2cc1OCCCCCCC(=O)NO [Compound 86, 7-(4-(4-fluorobenzylamino)-7-methoxyquinazolin-6-yloxy)-N-hydroxyheptanamide]"
21,100 to 1000,"C#Cc1cccc(Nc2ncnc3cc(OC)c(NC(=O)CCCCC(=O)NO)cc23)c1 [Compound 43, N^1-(4-(3-ethynylphenylamino)-7-methoxyquinazolin-6-yl)-N^6-hydroxyadipamide]"
22,1000 to 10000,"COc1cc2ncnc(Nc3ccc(F)c(Cl)c3)c2cc1NC(=O)CCCC(=O)NO [Compound 38, N^1-(4-(3-chloro-4-fluorophenylamino)-7-methoxyquinazolin-6-yl)-N^5-hydroxyglutaramide]"
23,< 100,C#Cc1cc(Nc2ncnc3cc(OCCOC)c(OCCCCCCC(=O)NO)cc23)ccc1F [Compound 76]

row,IC50 [nM],Compound
1,> 10000,"C#Cc1cccc(Nc2ncnc3cc(OC)c(OCC(=O)NO)cc23)c1 [Compound 7, 2-(4-(3-ethynylphenylamino)-7-methoxyquinazolin-6-yloxy)-N-hydroxyacetamide]"
2,< 100,COc1cc2ncnc(NCCc3ccccc3)c2cc1OCCCCCCC(=O)NO [Compound 84]
3,< 100,COc1cc2ncnc(Nc3ccc(F)c(Cl)c3)c2cc1OCCCCCC(=O)NO [Compound 5]
4,> 10000,COc1cc2ncnc(Nc3ccc(F)c(Cl)c3)c2cc1OCCCCCCC(=O)N(C)O [Compound 94]
5,1000 to 10000,"COCCOc1cc2ncnc(Nc3ccc(F)c(Cl)c3)c2cc1NC(=O)CCCC(=O)NO [Compound 68, N^1-(4-(3-chloro-4-fluorophenylamino)-7-(2-methoxyethoxy)quinazolin-6-yl)-N^5-hydroxyglutaramide]"
6,> 10000,"COc1cc2ncnc(Nc3ccc(F)c(Cl)c3)c2cc1OCC(=O)NO [Compound 1, 2-(4-(3-Chloro-4-fluorophenylamino)-7-methoxyquinazolin-6-yloxy)-N-hydroxyacetamide]"
7,100 to 1000,"C#Cc1cccc(Nc2ncnc3cc(OC)c(OCCCC(=O)NO)cc23)c1 [Compound 9, 4-(4-(3-ethynylphenylamino)-7-methoxyquinazolin-6-yloxy)-N-hydroxybutanamide]"
8,< 100,"C#Cc1cc(Nc2ncnc3cc(OC)c(OCCCCCCC(=O)NO)cc23)ccc1F [Compound 75, 7-(4-(3-ethynyl-4-fluorophenylamino)-7-methoxyquinazolin-6-yloxy)-N-hydroxyheptanamide]"
9,< 100,"COc1cc2ncnc(NCc3ccc(F)c(Cl)c3)c2cc1OCCCCCCC(=O)NO [Compound 88, 7-(4-(3-chloro-4-fluorobenzylamino)-7-methoxyquinazolin-6-yloxy)-N-hydroxyheptanamide]"
10,< 100,"COc1cc2ncnc(NCc3ccccc3)c2cc1OCCCCCCC(=O)NO [Compound 85, 7-(4-(Benzylamino)-7-methoxyquinazolin-6-yloxy)-N-hydroxyheptanamide]"
11,100 to 1000,"C#Cc1cccc(Nc2ncnc3cc(OC)c(OCCCCC(=O)NO)cc23)c1 [Compound 10, 5-(4-(3-Ethynylphenylamino)-7-methoxyquinazolin-6-yloxy)-N-hydroxypentanamide]"
12,< 100,"C[C@@H](Nc1ncnc2ccc(OCCCCCC(=O)NO)cc12)c1ccccc1 [Compound 78, (R)—N-hydroxy-6-(4-(1-phenylethylamino)-quinazolin-6-yloxy)hexanamide]"
13,100 to 1000,"C#Cc1cccc(Nc2ncnc3cc(OC)c(NC(=O)CCCC(=O)NO)cc23)c1 [Compound 42, N^1-(4-(3-ethynylphenylamino)-7-methoxyquinazolin-6-yl)-N^5-hydroxyglutaramide]"
14,< 100,"COc1cc2ncnc(NCc3cccc(Br)c3)c2cc1OCCCCCCC(=O)NO [Compound 89, 7-(4-(3-bromobenzylamino)-7-methoxyquinazolin-6-yloxy)-N-hydroxyheptanamide]"
15,100 to 1000,"COCCOc1cc2ncnc(Nc3ccc(F)c(Cl)c3)c2cc1NC(=O)CCCCC(=O)NO [Compound 69, N^1-(4-(3-chloro-4-fluorophenylamino)-7-(2-methoxyethoxy)quinazolin-6-yl)-N^6-hydroxyadipamide]"
16,> 10000,COc1cc2ncnc(Nc3ccc(F)c(Cl)c3)c2cc1OCCC(=O)NO [Compound 2]
17,1000 to 10000,COc1cc2ncnc(Nc3ccc(F)c(Cl)c3)c2cc1NC(=O)Nc1ccc(C(=O)NO)cc1 [Compound 93]
18,1000 to 10000,COc1cc2ncnc(Nc3ccc(F)c(Cl)c3)c2cc1OCCOc1ccc(CC(=O)NO)cc1 [Compound 91]
19,< 100,"COc1cc2ncnc(N[C@H](C)c3ccccc3)c2cc1OCCCCCC(=O)NO [Compound 77, (R)—N-hydroxy-6-(7-methoxy-4-(1-phenylethylamino)quinazolin-6-yloxy)-hexanamide]"
20,< 100,"COCCOc1cc2ncnc(Nc3ccc(F)c(Cl)c3)c2cc1OCCCCCCC(=O)NO [Compound 30, 7-(4-(3-Chloro-4-fluorophenylamino)-7-(2-methoxyethoxy)quinazolin-6-yloxy)-N-hydroxyheptanamide]"
21,1000 to 10000,"C#Cc1cccc(Nc2ncnc3ccc(OCCCC(=O)NO)cc23)c1 [Compound 21, 4-(4-(3-ethynylphenylamino)quinazolin-6-yloxy)-N-hydroxybutanamide]"
22,< 100,C#Cc1cccc(Nc2ncnc3ccc(OCCCCC(=O)NO)cc23)c1 [Compound 22]
23,100 to 1000,"COc1cc2ncnc(N[C@H](C)c3ccc(F)cc3)c2cc1OCCCCCCC(=O)NO [Compound 81, (R)-7-(4-(1-(4-fluorophenyl)ethylamino)-7-methoxyquinazolin-6-yloxy)-N-hydroxyheptanamide]"
